For 25 compounds, IC50 results are on record in ChEMBL document CHEMBL1135153, “Cephalosporin-derived inhibitors of beta-lactamase. Part 4: The C3 substituent” (Bioorg Med Chem Lett, 2002).

Structures are written as SMILES.

For the test, the target named is Beta-lactamase (Enterobacter cloacae, UniProt P05364). The test is described as follows: Inhibitory activity against Class C beta-lactamase.
Chain of Beta-lactamase (P05364 whole entry): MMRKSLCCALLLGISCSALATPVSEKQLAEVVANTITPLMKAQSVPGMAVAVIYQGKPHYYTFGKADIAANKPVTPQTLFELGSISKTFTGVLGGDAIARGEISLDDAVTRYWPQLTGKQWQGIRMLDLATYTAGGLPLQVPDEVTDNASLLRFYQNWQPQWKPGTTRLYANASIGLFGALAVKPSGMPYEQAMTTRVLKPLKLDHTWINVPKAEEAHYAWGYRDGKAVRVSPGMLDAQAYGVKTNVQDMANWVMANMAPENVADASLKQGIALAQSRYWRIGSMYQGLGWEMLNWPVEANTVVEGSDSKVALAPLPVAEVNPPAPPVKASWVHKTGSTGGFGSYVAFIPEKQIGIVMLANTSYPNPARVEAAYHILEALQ

`O=C(O)C1=CCS(=O)(=O)[C@@H]2/C(=C\c3ccccn3)C(=O)N12` had an IC50 of 116 nM.

The compound `NC(=O)/C=C/C1=C(C(=O)O)N2C(=O)/C(=C/c3ccccn3)[C@H]2S(=O)(=O)C1` displayed a half-inhibitory concentration (IC50) of 22 nM.

Consider `O=C(/C=C/C1=C(C(=O)O)N2C(=O)/C(=C/c3ccccn3)[C@H]2S(=O)(=O)C1)NCc1ccccc1`, for which it took 110 nM to reach half-maximal inhibition (IC50).

`O=C(O)C1=C(S(=O)(=O)c2ccccc2)CS(=O)(=O)[C@@H]2/C(=C\c3ccccn3)C(=O)N12` had an IC50 of 174 nM.

Consider `O=C(O)C1=C(Cl)CS(=O)(=O)[C@@H]2/C(=C\c3ccccn3)C(=O)N12`, for which the IC50 is 3 nM.

As for `O=C(O)C1=C(c2ccccc2)CS(=O)(=O)[C@@H]2/C(=C\c3ccccn3)C(=O)N12`, 38 nM corresponded to half-maximal inhibition (IC50).

On to `O=C(/C=C/C1=C(C(=O)O)N2C(=O)/C(=C/c3ccccn3)[C@H]2S(=O)(=O)C1)Nc1c(F)c(F)c(F)c(F)c1F`, for which it took 127 nM to reach half-maximal inhibition (IC50).

The compound `CSC1=C(C(=O)O)N2C(=O)/C(=C/c3ccccn3)[C@H]2S(=O)(=O)C1` displayed an IC50 of 59 nM.

`CS(=O)(=O)C1=C(C(=O)O)N2C(=O)/C(=C/c3ccccn3)[C@H]2S(=O)(=O)C1`: it took 90.7 nM to reach half-maximal inhibition (IC50).

On to `O=C(/C=C/C1=C(C(=O)O)N2C(=O)/C(=C/c3ccccn3)[C@H]2S(=O)(=O)C1)NO`, for which the half-inhibitory concentration (IC50) is 128 nM.

The compound `CN1CCN(C(=O)/C=C/C2=C(C(=O)O)N3C(=O)/C(=C/c4ccccn4)[C@H]3S(=O)(=O)C2)CC1` displayed an IC50 of 6340 nM.

The compound `O=C(O)C1=C(Sc2ccccc2)CS(=O)(=O)[C@@H]2/C(=C\c3ccccn3)C(=O)N12` registered an IC50 of 21.7 nM.

`O=C(/C=C/C1=C(C(=O)O)N2C(=O)/C(=C/c3ccccn3)[C@H]2S(=O)(=O)C1)NC1CC1` showed an IC50 of 824 nM.

`NCCCNC(=O)/C=C/C1=C(C(=O)O)N2C(=O)/C(=C/c3ccccn3)[C@H]2S(=O)(=O)C1` showed an IC50 of 4200 nM.

In the case of `O=C(/C=C/C1=C(C(=O)O)N2C(=O)/C(=C/c3ccccn3)[C@H]2S(=O)(=O)C1)Nc1ccc(O)cc1`, half-maximal inhibition (IC50) was put at 35 nM.

The compound `O=C(O)CNC(=O)/C=C/C1=C(C(=O)O)N2C(=O)/C(=C/c3ccccn3)[C@H]2S(=O)(=O)C1` yielded an IC50 of 310 nM.

Turning to `NNC(=O)/C=C/C1=C(C(=O)O)N2C(=O)/C(=C/c3ccccn3)[C@H]2S(=O)(=O)C1`, the IC50 was determined as 1100 nM.

In the case of `O=C(/C=C/C1=C(C(=O)O)N2C(=O)/C(=C/c3ccccn3)[C@H]2S(=O)(=O)C1)NCC(F)(F)F`, half-maximal inhibition (IC50) was put at 1180 nM.

For the compound `N=C(N)NCCNC(=O)/C=C/C1=C(C(=O)O)N2C(=O)/C(=C/c3ccccn3)[C@H]2S(=O)(=O)C1`, the IC50 was found to be 5.5 nM.

As to `O=C(O)C1=C(I)CS(=O)(=O)[C@@H]2/C(=C\c3ccccn3)C(=O)N12`, 4.7 nM corresponded to half-maximal inhibition (IC50).

`O=C(O)C1=C(Br)CS(=O)(=O)[C@@H]2/C(=C\c3ccccn3)C(=O)N12`: the IC50 came out at 2.9 nM.

On to `O=C(O)C1=C(c2cccs2)CS(=O)(=O)[C@@H]2/C(=C\c3ccccn3)C(=O)N12`, for which 40.3 nM corresponded to half-maximal inhibition (IC50).

The compound `O=C(O)C1=C(F)CS(=O)(=O)[C@@H]2/C(=C\c3ccccn3)C(=O)N12` came in with an IC50 of 11 nM.

Take `O=C(O)C1=C(C(=O)O)N2C(=O)/C(=C/c3ccccn3)[C@H]2S(=O)(=O)C1`: the IC50 was found to be 32 nM.

`O=C(/C=C/C1=C(C(=O)O)N2C(=O)/C(=C/c3ccccn3)[C@H]2S(=O)(=O)C1)NCCO` showed an IC50 of 212 nM.

Broadly, the IC50 is the concentration that gives 50% inhibition. A lower IC50 goes with inhibition by little substance.
